Laboratory results: patent publication US11465972B2, “Inhibitors of oxidized low-density lipoprotein receptor 1 and methods of use thereof” (United States Government as represented by the Department …, priority 2015, dated 2022)
Blank lines part the entries; values can stand above or below the compound they belong to.

What was measured:
[1] = test system: human primary aortic endothelial cells; assay: ox-LDL uptake by human primary aortic endothelial cells (flow cytometry); assay type: cell-based; details: Endothelial cell, 0, 5, 50, 100, 250, 500 nM
Description: FIG. 7A depicts flow cytometry measurements using human primary aortic endothelial cells in the presence of 0, 5, 50 100, 250 and […] of Formula XVI. FIG. 7B depicts the percentage of internalized ox-LDL. The x-axis represents Formula XVI concentration (nM) and the y-axis represents ox-LDL uptake by ECs.
Ox-LDL uptake by human primary aortic endothelial cells was measured after exposure to 0, 5, 50, 100, 250 and 500 nM of the compound of Formula XVI (compound 13 in Table 3) using flow cytometry.

[2] = biological target: CHO cells expressing LOX-1 (Homo sapiens, UniProt P78380); details: only at high concentrations; cited from earlier work
macrophages = details: cited from earlier work
LOX-1 expression = details: cited from earlier work

IC50 [1]: 26.7 nM
Compound: OC(COc1ccccc1)Cn1ccnc1I (stereo not shown) [Formula XVI]

Compound: procyanidins
ox-LDL uptake in CHO cells expressing LOX-1 [2]: inhibited ox-LDL uptake

Compound: CCCCCCCCCCCCCCCCCC(=O)Nc1ccc(S(=O)(=O)O)c(NC(=O)CCCCCCCCCCCCCCCCC)c1 [2,4-bis(octadecanoylamino) benzenesulfonic acid]
LDL binding to macrophages (macrophages): prevented LDL from binding to macrophages

Compound: CC(=O)Oc1ccccc1C(=O)O [aspirin]
ox-LDL mediated LOX-1 expression (LOX-1 expression): reduce ox-LDL mediated LOX-1 expression
